Experimental findings from ChEMBL document CHEMBL1128147, “Mechanistic support for the stepwise process for inactivation of class A -lactamases by clavulanate” (Bioorg Med Chem Lett, 1995) are described below.

Assay [1] concerns the target Beta-lactamase (Enterobacter cloacae) (UniProt P05364).
Description: K2 for inactivation of TEM-1 beta-lactamase
Assay [2] shares this target. The source holds these as a separate data set.
Description: K3 for inactivation of TEM-1 beta-lactamase
Assay [3] shares this target. The source holds these as a separate data set.
Description: Kcat for inactivation of TEM-1 beta-lactamase
For assay [4] the target is unchanged. The source holds these as a separate data set.
Description: Ks for inactivation of TEM-1 beta-lactamase
Assay [5] is described as follows: Partition ratio between Kcat and Kinact was determined.
Assay [6] relates to Beta-lactamase TEM (Escherichia coli). The experiment in a line: Effect on rate of recovery of TEM-2 beta lactamase from transient inhibition.
A short description of assay [7]: Partition ratio between Kcat (for beta lactamase) and Kinact (for beta lactamase) was determined.

SMILES strings stand for the structures.

Beta-lactamase (Enterobacter cloacae), sequence (P05364 21-381 limits assumed): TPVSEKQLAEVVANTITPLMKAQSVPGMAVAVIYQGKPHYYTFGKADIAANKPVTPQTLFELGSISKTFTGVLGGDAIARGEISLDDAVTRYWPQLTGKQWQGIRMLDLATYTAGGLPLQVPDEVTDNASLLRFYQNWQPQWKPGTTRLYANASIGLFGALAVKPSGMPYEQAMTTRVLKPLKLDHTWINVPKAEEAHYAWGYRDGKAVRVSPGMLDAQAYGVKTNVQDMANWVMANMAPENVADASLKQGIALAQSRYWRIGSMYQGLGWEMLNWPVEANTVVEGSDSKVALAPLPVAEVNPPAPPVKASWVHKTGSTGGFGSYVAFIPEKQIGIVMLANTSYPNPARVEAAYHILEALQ

`O=C(O)[C@H]1C(CCO)O[C@@H]2CC(=O)N21` (some centres not stated) displayed a K2 in assay [1] of 42 s⁻¹. This molecule returned a K3 in assay [2] of 10 s⁻¹. The molecule further had a k cat in assay [3] of 8 s⁻¹. Moreover, in assay [4], the Ks was 11.6 µM. Besides, the Ratio in assay [5] worked out at 3.7e+06.

`O=C1C[C@H]2O/C(=C\CO)[C@H](CO)N12` gave a Rate of recovery in assay [6] of 0.002 s⁻¹.

Regarding `C/C=C1\O[C@@H]2CC(=O)N2[C@H]1C(=O)O`, in assay [7], the Ratio is 390.
